In PMC10383271:

How the values were obtained:
[1] = tested on: alpha-1-acid glycoprotein (AAG); assay: Fluorescence quenching titration of AAG
Method: (§1) Aex is the absorbance at excitation wavelengths, and Aem is the absorbance at emission wavelengths.
(§2) The correlation between the stability constant of complexes Kb and standard thermodynamic parameters enthalpy change (ΔH°), and entropy change (ΔS°) was determined by the van’t Hoff Equation (4):(4) logKb=−∆H^°/RT+∆S^°/R where R is the universal gas constant; the free energy change (ΔG°) can be calculated by following Equation (5):(5) ∆G^°=∆H^°−T∆S^°=−RTlnKb
(§3) The fluorescence study was performed on a Cary Eclipse 500 spectrophotometer (Agilent, Santa Clara, CA, USA). The spectra were recorded in a cuvette with 10 mm path length at an emission range of 300–500 nm, and the excitation wavelength was 280 nm.

[2] = biological target: T1, human serum albumin (HSA) (Homo sapiens, UniProt P02768); assay: Fluorescence quenching titration of HSA; details: for Kd: logKb
Method: as §1, §2, §3

[3] = biological target: T1, human serum albumin (HSA); assay: Circular dichroism spectroscopy of HSA, secondary structure; parameters: purchased Sigma-Aldrich Chemie GmbH
Method: When the small molecules interact with plasma proteins, changes in circular dichroism spectra are observed. Specific secondary structures such as α-helix or β-sheet have a characteristic band on the spectrum. For the first structure, two negative peaks near 209 and 220 nm are observed, while for the β-sheet, the negative band around 215 nm is present.
Circular dichroism (CD) spectra were measured on the Jasco J-1500 magnetic circular dichroism spectrometer (JASCO International CO., Tokyo, Japan) at room temperature with a 10 mm path length. […] The spectra were measured in the range of 205–250 nm at a scan rate speed of 50 nm/min, with a response time of 1 s. […] They were respectively added into 3 mL of protein solution successive portions of the solutions of the analyzed compounds. The analysis of the obtained results was performed using the CD Multivariate Calibration Creation and CD Multivariate SSE programs (JASCO International CO., Tokyo, Japan). Protein concentrations were converted here for mean residue molar concentrations.

[4] = biological target: T2, COX-2 (Homo sapiens, UniProt P35354); assay: COX-2 inhibition, Cayman's COX Colorimetric Inhibitor Screening Assay Kit
T2 sequence (P35354 18-604): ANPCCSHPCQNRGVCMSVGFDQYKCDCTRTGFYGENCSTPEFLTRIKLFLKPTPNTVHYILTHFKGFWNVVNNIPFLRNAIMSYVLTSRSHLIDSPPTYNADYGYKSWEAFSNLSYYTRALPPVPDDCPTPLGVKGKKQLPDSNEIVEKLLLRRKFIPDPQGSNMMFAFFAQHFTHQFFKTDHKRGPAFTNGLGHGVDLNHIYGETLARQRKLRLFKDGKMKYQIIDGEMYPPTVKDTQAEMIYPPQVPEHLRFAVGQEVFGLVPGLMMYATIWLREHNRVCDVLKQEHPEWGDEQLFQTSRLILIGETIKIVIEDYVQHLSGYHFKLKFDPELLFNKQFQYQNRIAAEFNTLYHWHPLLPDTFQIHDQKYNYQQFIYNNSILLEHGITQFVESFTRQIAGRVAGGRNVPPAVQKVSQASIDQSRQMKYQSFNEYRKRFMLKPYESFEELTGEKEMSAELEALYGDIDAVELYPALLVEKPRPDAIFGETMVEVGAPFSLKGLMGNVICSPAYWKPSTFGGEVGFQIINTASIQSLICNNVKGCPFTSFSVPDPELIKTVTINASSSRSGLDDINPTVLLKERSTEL

[5] = tested on: alpha-1-acid glycoprotein (AAG); assay: Binding site study with AAG, replacement of marker quinaldine red (fluorescence); parameters: species or system human
Source text: Orosomucoid has seven binding sites in its molecule, but there is only one site where the drugs bind. A very good fluorescent marker for binding site study in the case of AAG is quinalidine red (QR).
We used a 500 nm excitation wavelength. In these conditions, the maximum emission spectra were located near 600 nm. We increased the molar ratio of the reactants from 1:1:0 to 1:1:10. The intensity of fluorescence decreases during the addition of successive portions of the analyzed compounds.
Binding site studies were conducted using fluorescence measurements. Spectra were recorded on Cary Eclipse 500 spectrophotometer (Agilent, Santa Clara, CA, USA) at room temperature with a 10 mm path length. HSA and AAG solutions were prepared in phosphate buffer, giving concentrations equal to 1 × 10^−6 M. The concentrations of dansylated-L-glycine (DanG), dansylated-L-phenylalanine (DanF), and quinaldine red (QR) were 1 × 10^−3 M. The densylated amino acids and QR solutions were prepared in ethanol. For the HSA-dansylated amino acids studies, the excitation wavelength was equal to 350 nm, while for the AAG-QR system, it was 500 nm, respectively. Then, 3 mL of protein was mixed with 3 µL of marker solution, giving a molar ratio of 1 to 1. Next, successive portions of the analyzed compounds were added to the mixtures prepared in this way, obtaining the appropriate protein-to-compound molar ratios, amounting to 1:0, 1:0.5, 1:1, 1:2, 1:3, 1:4, 1:5, and 1:10 for the HSA-densylated amino acids systems, and 1:0, 1:0.5, 1:1, 1:2, 1:3, 1:4, 1:6, 1:8, and 1:10 for the AAG-QR systems.

T1 sequence (P02768 25-609): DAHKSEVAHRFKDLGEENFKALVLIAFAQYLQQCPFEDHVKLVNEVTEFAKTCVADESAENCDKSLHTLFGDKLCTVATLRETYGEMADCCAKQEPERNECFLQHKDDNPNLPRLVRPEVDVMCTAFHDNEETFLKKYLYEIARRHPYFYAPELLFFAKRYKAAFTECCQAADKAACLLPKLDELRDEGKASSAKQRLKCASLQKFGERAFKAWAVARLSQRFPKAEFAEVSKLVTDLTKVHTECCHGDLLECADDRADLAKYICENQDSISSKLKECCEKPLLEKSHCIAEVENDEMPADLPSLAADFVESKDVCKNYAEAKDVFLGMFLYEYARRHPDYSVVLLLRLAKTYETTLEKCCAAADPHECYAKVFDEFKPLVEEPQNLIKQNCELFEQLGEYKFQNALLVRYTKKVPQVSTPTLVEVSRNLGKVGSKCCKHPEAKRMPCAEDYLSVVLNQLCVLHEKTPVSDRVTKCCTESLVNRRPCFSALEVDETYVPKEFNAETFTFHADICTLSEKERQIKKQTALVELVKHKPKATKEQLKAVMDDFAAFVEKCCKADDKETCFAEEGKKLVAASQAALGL

Cc1c2c(OCC(=O)N/N=C/c3ccccc3)nn(C)c(=O)c2c(C)n1-c1ccccc1 [Compound 5b, N-[(Z/E)-benzylideneamino]-2-(3,5,7-trimethyl-4-oxo-6-phenyl-pyrrolo[3,4-d]pyridazin-1-yl)oxy-acetamide]
Ksv ([1]; T 297 K): 10.41 ± 1.08 ·10^4 dm^3·mol^−1 | kq ([1]; T 297 K): 10.41 ·10^12 dm^3·mol^−1·s^−1 | logKb ([1]; T 297 K): 2.71 ± 0.21 | Ksv ([1]; T 303 K): 11.41 ± 1.42 ·10^4 dm^3·mol^−1 | kq ([1]; T 303 K): 11.41 ·10^12 dm^3·mol^−1·s^−1 | logKb ([1]; T 303 K): 2.53 ± 0.15 | Ksv ([1]; T 308 K): 8.39 ± 1.24 ·10^4 dm^3·mol^−1 | kq ([1]; T 308 K): 8.39 ·10^12 dm^3·mol^−1·s^−1 | logKb ([1]; T 308 K): 2.35 ± 0.12 | melting point: 274 to 275 °C | Ksv ([2]; T 297 K): 5.55 ± 0.33 × 10^5 dm^3·mol^−1 | kq ([2]; T 297 K): 5.55 × 10^13 dm^3·mol^−1·s^−1 | n (number of binding sites) ([2]; T 297 K): 1.15 ± 0.06 | Ksv ([2]; T 303 K): 5.26 ± 0.28 × 10^5 dm^3·mol^−1 | kq ([2]; T 303 K): 5.26 × 10^13 dm^3·mol^−1·s^−1 | n (number of binding sites) ([2]; T 303 K): 1.10 ± 0.10 | Ksv ([2]; T 308 K): 4.75 ± 0.23 × 10^5 dm^3·mol^−1 | kq ([2]; T 308 K): 4.75 × 10^13 dm^3·mol^−1·s^−1 | n (number of binding sites) ([2]; T 308 K): 1.02 ± 0.05 | Kd ([2]; T 297 K): 263 nM | Kd ([2]; T 303 K): 490 nM | Kd ([2]; T 308 K): 1450 nM | ΔG° ([2]; one value per compound, temperature not given): -37.66 kJ/mol | ΔH° ([2]; van't Hoff): -116.19 kJ/mol | ΔS° ([2]; van't Hoff): −264.38 J·mol^−1·K^−1 | Change in % α-helix, (1:5) minus (1:0) ([3]; HSA): −2.4% | reduction in the percentage of α-helix ([3]; HSA): 2.4% | % Other ([3]; HSA:compound molar ratio 1:0.5): 20.9% | % α-Helix ([3]; HSA:compound molar ratio 1:0.5): 67.7% | % β-Sheet ([3]; HSA:compound molar ratio 1:0.5): 2.2% | % β-Turn ([3]; HSA:compound molar ratio 1:0.5): 9.3% | % Other ([3]; HSA:compound molar ratio 1:1): 21.0% | % α-Helix ([3]; HSA:compound molar ratio 1:1): 67.1% | % β-Sheet ([3]; HSA:compound molar ratio 1:1): 2.5% | % β-Turn ([3]; HSA:compound molar ratio 1:1): 9.3% | % Other ([3]; HSA:compound molar ratio 1:2): 20.6% | % α-Helix ([3]; HSA:compound molar ratio 1:2): 66.9% | % β-Sheet ([3]; HSA:compound molar ratio 1:2): 3.2% | % β-Turn ([3]; HSA:compound molar ratio 1:2): 9.3% | % Other ([3]; HSA:compound molar ratio 1:3): 20.5% | % α-Helix ([3]; HSA:compound molar ratio 1:3): 66.6% | % β-Sheet ([3]; HSA:compound molar ratio 1:3): 3.7% | % β-Turn ([3]; HSA:compound molar ratio 1:3): 9.3% | % Other ([3]; HSA:compound molar ratio 1:5): 20.2% | % α-Helix ([3]; HSA:compound molar ratio 1:5): 66.3% | % β-Sheet ([3]; HSA:compound molar ratio 1:5): 4.3% | % β-Turn ([3]; HSA:compound molar ratio 1:5): 9.2% | IC50 [4]: 22.7 ± 1.2 µM | Selectivity Index (SI) ([4]; COX-2 IC50/COX-1 IC50): 0.25 | percentage of the replacement of QR ([5]; AAG:marker:compound molar ratio 1:1:0.5): 17.2% | percentage of the replacement of QR ([5]; AAG:marker:compound molar ratio 1:1:1): 29.1% | percentage of the replacement of QR ([5]; AAG:marker:compound molar ratio 1:1:2): 40.3% | percentage of the replacement of QR ([5]; AAG:marker:compound molar ratio 1:1:3): 47.0% | percentage of the replacement of QR ([5]; AAG:marker:compound molar ratio 1:1:4): 52.2% | percentage of the replacement of QR ([5]; AAG:marker:compound molar ratio 1:1:6): 55.2% | percentage of the replacement of QR ([5]; AAG:marker:compound molar ratio 1:1:8): 56.7% | percentage of the replacement of QR ([5]; AAG:marker:compound molar ratio 1:1:10): 58.2%
